Measured values taken from ChEMBL document CHEMBL5550217, “Discovery of gem-Dimethyl-hydroxymethylpyridine Derivatives as Potent Non-nucleoside RSV Polymerase Inhibitors” (J Med Chem, 2024).
pEC50, pIC50: −log10 of the molar value.

Key:
[1] = test system: Respiratory syncytial virus; assay: Antiviral activity against Respiratory syncytial virus (RSV)-A2-eGFP infected in human HeLa cells assessed as eGFP expression measured after 3 days by RSV Cell-based infection assay; assay type: functional, organism-based; conditions: 72 h
[2] = Metabolic stability in rat hepatocytes assessed as intrinsic clearance per 10^6 cells at 1 uM measured upto 180 mins by LC-MS/MS analysis; assay type: ADME, cell-based, Hepatocyte; conditions: read-out: CLH
[3] = Metabolic stability in human hepatocytes assessed as intrinsic clearance per 10^6 cells at 1 uM measured upto 180 mins by LC-MS/MS analysis; assay type: ADME, cell-based, Hepatocyte; conditions: read-out: CLH
[4] = test system: Respiratory syncytial virus; assay: Antiviral activity against Respiratory syncytial virus (RSV) infected in human APC-126 cells assessed as replicon by measuring protein adjusted effective concentration in the presence of 40% human serum measured after 3 days by Renilla Glo assay; assay type: functional, organism-based; conditions: 72 h
[5] = Cytotoxicity against human HeLa cells measured after 3 days by ATPlite kit assay; assay type: toxicity, cell-based; conditions: time 3 day
[6] = Inhibition of RSV RNA polymerase assessed as RNA products using […] template by SPA primer extension enzymatic assay; parameters: species or system Respiratory syncytial virus
[7] = Clearance in Sprague-Dawley rat at 1.25 mg/kg, iv; assay type: ADME, organism-based; conditions: in vivo
[8] = Inhibition of RSV RNA polymerase assessed as RNA products using […] template by Flashplate primer extension enzymatic assay; parameters: species or system Respiratory syncytial virus
[9] = Drug recovery in bile duct cannulated rat bile measured for 48 hrs; assay type: ADME, tissue-based; conditions: read-out: Drug recovery
[10] = Drug recovery in bile duct cannulated rat urine measured for 48 hrs; assay type: ADME, tissue-based; conditions: read-out: Drug recovery
[11] = Metabolic stability in human liver microsomes assessed as intrinsic clearance; assay type: ADME, Microsome; conditions: read-out: CLH
[12] = Metabolic stability in rat hepatocytes assessed as intrinsic clearance measured per 10^6 cells; assay type: ADME, cell-based, Hepatocyte; conditions: read-out: CLH
[13] = test system: Respiratory syncytial virus; assay: Antiviral activity against Respiratory syncytial virus (RSV) assessed as reduction in replicon RNA by Renilla Luciferase assay system; assay type: functional, organism-based; conditions: human respiratory syncytial virus
[14] = Metabolic stability in human hepatocytes assessed as intrinsic clearance measured per 10^6 cells; assay type: ADME, cell-based, Hepatocyte; conditions: read-out: CLH

| SMILES | pEC50 [1] | hepatocyte CLint at 1 µM [2] | hepatocyte CLint at 1 µM [3] | pEC50 [4] | CC50 at 72 h [5] | pIC50 [6] | clearance [7] | pIC50 [8] | dose excreted at 48 h [9] | dose excreted at 48 h [10] | microsomal CLint [11] | hepatocyte CLint [12] | pEC50 [13] | hepatocyte CLint [14] |
| --- | --- | --- | --- | --- | --- | --- | --- | --- | --- | --- | --- | --- | --- | --- |
| COc1cc(C(=O)NC[C@](O)(c2cc(C(C)(C)O)c(F)c(-c3ccc(F)cc3)n2)C(F)(F)F)cc2cc(C)cnc12 | 8.35 | 28 µL/min/1e6 cells | 6.6 µL/min/1e6 cells | 7.37 | 14600 nM | 9.38 | – | – | – | – | – | – | – | – |
| COc1cc(C(=O)NC[C@](O)(c2cc(C(C)(C)O)c(F)c(-c3ccc(F)cc3)n2)C(F)(F)F)cc2cc(C(F)F)nnc12 | 8.46 | 6.9 µL/min/1e6 cells | < 1.9 µL/min/1e6 cells | 6.72 | 18300 nM | 9.40 | – | – | – | – | – | – | – | – |
| COc1cc(C(=O)NC[C@](O)(c2cc3c(c(-c4ccc(F)cc4)n2)OC[C@]3(C)NC(C)=O)C(F)(F)F)cc2cc(C)cnc12 | 8.57 | 54 µL/min/1e6 cells | 4.9 µL/min/1e6 cells | – | 14500 nM | 9.08 | 13.6 mL/min/kg | – | – | – | – | – | – | – |
| COc1cc(C(=O)NC[C@](O)(c2cc(C(C)(C)O)c(F)c(-c3ccc(F)cc3)n2)C(F)(F)F)cc2cc(C(F)(F)F)cnc12 | 7.59 | < 1.9 µL/min/1e6 cells | < 1.9 µL/min/1e6 cells | 6.10 | 12600 nM | – | – | 9.14 | – | – | – | – | – | – |
| CC(=O)N[C@@]1(C)COc2c1cc([C@@](O)(CNC(=O)c1cc(OC3CC3)c3ncccc3c1)C(F)(F)F)nc2-c1ccc(F)cc1 | 7.72 | 11 µL/min/1e6 cells | < 1.9 µL/min/1e6 cells | – | 46800 nM | 8.43 | 6.13 mL/min/kg | – | – | – | – | – | – | – |
| COc1cc(C(=O)NC[C@](O)(c2cc3c(c(-c4ccc(F)cc4)n2)OC[C@]3(C)NC(C)=O)C(F)(F)F)ccc1OC[C@@H](C)O | 7.85 | 13 µL/min/1e6 cells | – | – | 73200 nM | 7.64 | – | – | – | – | – | – | – | – |
| COc1cc(C(=O)NC[C@](O)(c2cc(C(C)(C)O)c(F)c(-c3ccc(F)cc3)n2)C(F)(F)F)cc2cc(OC(F)F)nnc12 | 8.29 | – | – | 5.91 | 8900 nM | 9.04 | – | – | – | – | – | – | – | – |
| COc1cc(C(=O)NC[C@](O)(c2cc(C(C)(C)O)c(Cl)c(-c3ccc(F)cc3)n2)C(F)(F)F)cc2cc(C)cnc12 | 8.77 | – | 4.3 µL/min/1e6 cells | – | 21700 nM | 8.85 | – | – | – | – | – | – | – | – |
| COc1cc(C(=O)NC[C@](O)(c2nc(-c3ccc(F)cc3)c(F)c(C(C)(C)O)c2F)C(F)(F)F)cc2cc(C)cnc12 | 8.59 | – | 9.7 µL/min/1e6 cells | – | 43000 nM | 9.60 | – | – | – | – | – | – | – | – |
| COc1cc(C(=O)NC[C@](O)(c2cc(C(C)(C)O)c(F)c(-c3ccc(F)cc3)n2)C(F)(F)F)cc2cc(C(F)F)cnc12 | 8.44 | 19 µL/min/1e6 cells | < 1.9 µL/min/1e6 cells | 7.01 | 13200 nM | – | – | 8.77 | – | – | – | – | – | – |
| COc1cc(C(=O)NC[C@](O)(c2nc(-c3ccc(F)cc3)c(Cl)c(C(C)(C)O)c2F)C(F)(F)F)cc2cc(C)cnc12 | 8.32 | – | – | – | 45800 nM | 8.54 | – | – | – | – | – | – | – | – |
| COc1cc(C(=O)NC[C@](O)(c2cc3c(c(-c4ccc(F)cc4)n2)OC[C@]3(C)NS(C)(=O)=O)C(F)(F)F)cc2cccnc12 | 8.28 | 73 µL/min/1e6 cells | 3 µL/min/1e6 cells | – | 10200 nM | 9.15 | 60.9 mL/min/kg | – | – | – | – | – | – | – |
| COc1cc(C(=O)NC[C@](O)(c2cc3c(c(-c4ccc(F)cc4)n2)OC[C@]3(C)NS(C)(=O)=O)C(F)(F)F)cn2cc(CO)nc12 | 7.34 | 20 µL/min/1e6 cells | 4.3 µL/min/1e6 cells | – | > 90900 nM | 8.47 | 51.2 mL/min/kg | – | 77% | 6% | – | – | – | – |
| COc1nc2c(OC)cc(C(=O)NC[C@](O)(c3cc(C(C)(C)O)c(F)c(-c4ccc(F)cc4)n3)C(F)(F)F)cc2cc1C | 7.47 | – | – | 5.77 | 31000 nM | 8.82 | – | – | – | – | – | – | – | – |
| COc1cc(C(=O)NC[C@](O)(c2cc(C(C)(C)O)c(F)c(-c3ccc(F)cc3)n2)C(F)(F)F)cc2cc(Cl)nnc12 | 9.00 | 13 µL/min/1e6 cells | < 1.2 µL/min/1e6 cells | 6.96 | 9900 nM | 9.66 | – | – | – | – | – | – | – | – |
| COc1cc(C(=O)NC[C@](O)(c2cc(C(C)(C)O)c(F)c(-c3ccc(F)cc3)n2)C(F)(F)F)cc2cc(C3CC3)nnc12 | 8.59 | – | < 1.2 µL/min/1e6 cells | 6.65 | 8800 nM | 8.93 | – | – | – | – | – | – | – | – |
| COc1cc(C(=O)NC[C@](O)(c2cc3c(c(-c4ccc(F)cc4)n2)OC[C@]3(C)NS(C)(=O)=O)C(F)(F)F)cc2nc(N)sc12 | 8.85 | 72 µL/min/1e6 cells | 12 µL/min/1e6 cells | – | 13600 nM | 9.28 | 67.3 mL/min/kg | – | – | – | – | – | – | – |
| COc1cc(C(=O)NC[C@](O)(c2cc(C(C)(C)O)c(F)c(-c3ccc(F)cc3)n2)C(F)(F)F)cc2cc(C)c(C)nc12 | 8.07 | – | – | 7.21 | 18400 nM | 9.02 | – | – | – | – | > 347 µL/min/mg | – | – | – |
| COc1cc(C(=O)NC[C@](O)(c2cc(C(C)(C)O)c(F)c(-c3ccc(F)cc3)n2)C(F)(F)F)cc2cc(F)nnc12 | 8.17 | 93 µL/min/1e6 cells | < 1.9 µL/min/1e6 cells | 6.48 | 17300 nM | 8.88 | – | – | – | – | – | – | – | – |
| COc1cc(C(=O)NC[C@](O)(c2cc3c(c(-c4ccc(F)cc4)n2)OC[C@]3(C)NS(C)(=O)=O)C(F)(F)F)cc2cc(C)cnc12 | 8.89 | – | 3.7 µL/min/1e6 cells | – | 11400 nM | 9.44 | – | – | – | – | – | – | – | – |
| COc1cc(C(=O)NC[C@](O)(c2cc3c(c(-c4ccc(F)cc4)n2)OC[C@]3(C)NS(C)(=O)=O)C(F)(F)F)ccc1OC[C@@H](C)O | 7.92 | 28 µL/min/1e6 cells | 11 µL/min/1e6 cells | – | 54300 nM | 8.32 | 34 mL/min/kg | – | – | – | – | – | – | – |
| COc1cc(C(=O)NC[C@](O)(c2cc3c(c(-c4ccc(F)cc4)n2)OC[C@]3(C)NC(C)=O)C(F)(F)F)cc2cccnc12 | 7.82 | 11 µL/min/1e6 cells | 8.8 µL/min/1e6 cells | – | 12700 nM | 8.37 | 19 mL/min/kg | – | – | – | – | – | – | – |
| COc1cc(C(=O)NC[C@](O)(c2cc(C(C)(C)O)c(F)c(-c3ccc(F)cc3)n2)C(F)(F)F)cc2cc(C)c(F)nc12 | 8.42 | 57 µL/min/1e6 cells | 4.3 µL/min/1e6 cells | 7.32 | 13100 nM | 8.96 | – | – | – | – | – | – | – | – |
| CC(=O)N[C@@]1(C)COc2c1cc([C@@](O)(CNC(=O)c1cc(OC3CC3)c3ncc(F)cc3c1)C(F)(F)F)nc2-c1ccc(F)cc1 | 7.66 | – | < 1.9 µL/min/1e6 cells | – | 14000 nM | 8.44 | 2.51 mL/min/kg | – | – | – | – | – | – | – |
| COc1cc(C(=O)NC[C@](O)(c2cc(C(C)(C)O)c(F)c(-c3ccc(F)cc3)n2)C(F)(F)F)cc2cc(C3CC3)cnc12 | 7.27 | – | < 1.9 µL/min/1e6 cells | 5.66 | 12900 nM | – | – | 8.70 | – | – | – | – | – | – |
| COc1cc(C(=O)NC[C@](O)(c2cc(C(C)(C)O)c(F)c(-c3ccc(F)cc3)n2)C(F)(F)F)cc2cccnc12 | 7.96 | 120 µL/min/1e6 cells | 4.1 µL/min/1e6 cells | 6.51 | 16000 nM | 9.20 | – | – | – | – | – | – | – | – |
| COc1cc(C(=O)NC[C@](O)(c2cc3c(c(-c4ccc(F)cc4)n2)OC[C@]3(C)N)C(F)(F)F)ccc1OC[C@@H](C)O | 8.00 | 54 µL/min/1e6 cells | 31 µL/min/1e6 cells | – | 58400 nM | 8.29 | 89 mL/min/kg | – | – | – | – | 54 µL/min/1e6 cells | 8.00 | 31 µL/min/1e6 cells |
| CCc1cc2cc(C(=O)NC[C@](O)(c3cc(C(C)(C)O)c(F)c(-c4ccc(F)cc4)n3)C(F)(F)F)cc(OC)c2nn1 | 8.49 | – | 14 µL/min/1e6 cells | 7.39 | 21800 nM | 9.43 | – | – | – | – | – | – | – | – |
| COc1cc(C(=O)NC[C@](O)(c2cc(C(C)(C)O)c(F)c(-c3ccc(F)cc3)n2)C(F)(F)F)cc2cc(CF)cnc12 | 7.90 | – | – | – | 39800 nM | – | – | 8.42 | – | – | – | – | – | – |
